Measurements from US9006454B2, “Dihydroorotate dehydrogenase inhibitors” (Merck Serono S.A., priority 2009, dated 2015).

Tests used:
colon 38 tumor = conditions: murine model colon 38 tumor; cited from earlier work
L1210 murine leukemia = conditions: cited from earlier work
DHODH [1] = target: T1, DHODH (Homo sapiens (Human), UniProt Q02127); experiment: DHODH activity assay (coupled enzyme assay, DCIP reduction, absorbance at 610 nm); format: biochemical; conditions: compound at 10 uM; read-out: inh @ 10 uM hDHODH (%)
Target sequence in this assay (Q02127 whole entry): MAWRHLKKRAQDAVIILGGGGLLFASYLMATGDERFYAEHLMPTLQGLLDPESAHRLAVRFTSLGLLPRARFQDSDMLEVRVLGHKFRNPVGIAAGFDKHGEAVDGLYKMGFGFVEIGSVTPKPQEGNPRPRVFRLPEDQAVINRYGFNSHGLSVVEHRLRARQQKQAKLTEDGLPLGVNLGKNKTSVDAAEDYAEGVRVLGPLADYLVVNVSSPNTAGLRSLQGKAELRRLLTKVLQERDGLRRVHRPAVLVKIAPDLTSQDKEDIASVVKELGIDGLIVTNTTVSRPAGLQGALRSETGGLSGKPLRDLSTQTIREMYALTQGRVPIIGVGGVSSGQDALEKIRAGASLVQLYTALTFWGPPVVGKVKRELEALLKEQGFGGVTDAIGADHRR

Jurkat cells = experiment: Measurement of cell proliferation (Jurkat cell), XTT assay; format: cell-based; conditions: Homo sapiens, Jurkat; compound at 1 uM; read-out: % inh Jurkat_cells @ 1 uM (%)
In short: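 Jurkat T cells, 100,000 per well in RPMI with 10% FBS, exposed 72 h at 37 °C to serial compound dilutions (typically from 10 μM, half-log steps, triplicate) at 0.25–0.5% DMSO. Viability by XTT/PMS, A465 after 2 h, media background subtracted, untreated cells as 100%; EC50 from curve fit.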

DHODH [2] = target: T1, DHODH; conditions: cited from earlier work
Target sequence in this assay (Q02127 whole entry, species assumed): as the sequence (Q02127 whole entry) above

[3] = test system: spleen colony-forming units (CFU); conditions: cited from earlier work
[4] = test system: multiple sclerosis with relapses; conditions: once-daily oral 7 and 14 mg; cited from earlier work
[5] = test system: experimental allergic encephalomyelitis (EAE); conditions: oral, from 10 days after inoculation; Teriflunomide 3 and 10 mg/kg, dexamethasone 1 mg/kg; cited from earlier work

For `Cc1c(-c2ccc(-c3ccccc3F)cc2)nc2ccc(F)cc2c1C(=O)O` [Brequinar, 6-Fluoro-2-(2′-fluoro[1,1′-biphenyl]-4-yl)-3-methyl-4-quinolinecarboxylic Acid], the “potentiation of 5-fluorouracil antitumor activity” value (colon 38 tumor) is listed as “potentiates 5-fluorouracil antitumor activity” and the “anticancer activity towards L1210 murine leukemia” value (L1210 murine leukemia) is listed as “exhibits an anticancer activity”.
With `Cc1cc(C(=O)O)c2nc(C#Cc3ccc(OCc4ccccc4)cc3)[nH]c2c1` [I166] the inhibition at 10 µM (DHODH [1]) was 53.2% and the inhibition at 1 µM (Jurkat cells) was 13.4%.
In the case of `Cc1cc(C(=O)O)c2nc(-c3ccc(-c4ccccc4O)cc3)[nH]c2c1` [I167], the inhibition at 10 µM (DHODH [1]) is reported as 82.7% and the inhibition at 1 µM (Jurkat cells) is reported as 34.5%.
Compound `O=C(O)c1cccc2[nH]c(-c3ccc(-c4ccccc4O)cc3)nc12` [I168] has an inhibition at 10 µM (DHODH [1]) of 85% and an inhibition at 1 µM (Jurkat cells) of 34%.
Compound `O=C(O)c1cccc2[nH]c(-c3ccc(-c4ccccc4OCc4ccccc4)cc3)nc12` [I169] has an inhibition at 10 µM (DHODH [1]) of 72% and an inhibition at 1 µM (Jurkat cells) of 22%.
Compound `Cc1cc(C(=O)O)c2nc(-c3ccc(-c4ccc(CO)cc4)cc3)[nH]c2c1` [I170] has an inhibition at 10 µM (DHODH [1]) of 84% and an inhibition at 1 µM (Jurkat cells) of 57%.
`Cc1cc(C(=O)O)c2nc(-c3ccc(-c4ccc(Oc5ccccn5)cc4)cc3)[nH]c2c1` [I171] gave an inhibition at 10 µM (DHODH [1]) of 86% and an inhibition at 1 µM (Jurkat cells) of 35%.
Compound `O=C(O)c1cccc2[nH]c(-c3ccc(-c4ccc(Oc5ccccn5)cc4)cc3)nc12` [I172] has an inhibition at 10 µM (DHODH [1]) of 60% and an inhibition at 1 µM (Jurkat cells) of 21%.
`O=C(O)c1cccc2[nH]c(-c3ccc(-c4ccc(CO)cc4)cc3)nc12` [I173] showed an inhibition at 10 µM (DHODH [1]) of 80% and an inhibition at 1 µM (Jurkat cells) of 44%.
`Cc1cc(C(=O)O)c2nc(-c3ccc(-c4ccc(S(N)(=O)=O)cc4)cc3)[nH]c2c1` [I174] showed an inhibition at 10 µM (DHODH [1]) of 43% and an inhibition at 1 µM (Jurkat cells) of 9%.
For `N#Cc1ccccc1Oc1ccc(-c2ccc(-c3nc4c(C(=O)O)cccc4[nH]3)cc2)cc1` [I175], the inhibition at 10 µM (DHODH [1]) was 30% and the inhibition at 1 µM (Jurkat cells) was 15%.
For `COC(=O)c1cc(C)cc2[nH]c(-c3c(F)c(F)c(-c4ccccc4)c(F)c3F)nc12` [I176], the inhibition at 10 µM (DHODH [1]) was 45% and the inhibition at 1 µM (Jurkat cells) was 7%.
Work on `O=C(O)c1cccc2[nH]c(-c3ccc(-c4ccc(O)cc4)cc3)nc12` [I177] yielded an inhibition at 10 µM (DHODH [1]) of 51.3% and an inhibition at 1 µM (Jurkat cells) of 40.5%.
With `Cc1cc(C(=O)O)c2nc(-c3ccc(-c4ccc(Oc5ccc(C#N)cc5)cc4)cc3)[nH]c2c1` [I178] the inhibition at 10 µM (DHODH [1]) was 53.3% and the inhibition at 1 µM (Jurkat cells) was 37.6%.
With `N#Cc1ccc(Oc2ccc(-c3ccc(-c4nc5c(C(=O)O)cccc5[nH]4)cc3)cc2)cc1` [I179] the inhibition at 10 µM (DHODH [1]) was 45.8% and the inhibition at 1 µM (Jurkat cells) was 10.1%.
`O=Cc1ccc(Oc2ccc(-c3ccc(-c4nc5c(C(=O)O)cccc5[nH]4)cc3)cc2)cc1` [I180] gave an inhibition at 10 µM (DHODH [1]) of 30.5% and an inhibition at 1 µM (Jurkat cells) of 9.8%.
For `O=Cc1ccc(-c2ccc(-c3nc4c(C(=O)O)cccc4[nH]3)cc2)cc1` [I181], the inhibition at 10 µM (DHODH [1]) was 40.4% and the inhibition at 1 µM (Jurkat cells) was 9.4%.
`O=C(O)c1cccc2[nH]c(-c3ccc(-c4ccc(OCc5ccccn5)cc4)cc3)nc12` [I182] gave an inhibition at 10 µM (DHODH [1]) of 57.7% and an inhibition at 1 µM (Jurkat cells) of 26.9%.
Work on `O=C(O)c1cccc2[nH]c(-c3ccc(-c4ccc(OCc5ccncc5)cc4)cc3)nc12` [I183] yielded an inhibition at 10 µM (DHODH [1]) of 63.9% and an inhibition at 1 µM (Jurkat cells) of 23.5%.
For `O=C(O)c1cccc2[nH]c(-c3ccc(-c4ccc(OCc5cccnc5)cc4)cc3)nc12` [I184], the inhibition at 10 µM (DHODH [1]) was 53.3% and the inhibition at 1 µM (Jurkat cells) was 25.4%.
`Cc1ccc(C)n1-c1ccc(-c2nc3cccc(C(=O)O)c3[nH]2)cc1` [I185] showed an inhibition at 10 µM (DHODH [1]) of 59.4% and an inhibition at 1 µM (Jurkat cells) of 21.5%.
With `Cn1cc(-c2ccc(-c3nc4cccc(C(=O)O)c4[nH]3)cc2)cn1` [I186] the inhibition at 10 µM (DHODH [1]) was 31.9% and the inhibition at 1 µM (Jurkat cells) was 13.5%.
Compound `Cc1cc(C(=O)O)c2[nH]c(-c3ccc(-c4ccccc4)cc3)cc2c1` [I187] has an inhibition at 10 µM (DHODH [1]) of 32.1% and an inhibition at 1 µM (Jurkat cells) of 15.3%.
`O=C(O)c1cccc2[nH]c(-c3c(F)c(F)c(Oc4ccccc4)c(F)c3F)nc12` [I188] showed an inhibition at 10 µM (DHODH [1]) of 41.5% and an inhibition at 1 µM (Jurkat cells) of 17%.
`Cc1cc(C(=O)O)c2nc(-c3c(F)c(F)c(Oc4ccccc4)c(F)c3F)[nH]c2c1` [I189] gave an inhibition at 10 µM (DHODH [1]) of 39.8% and an inhibition at 1 µM (Jurkat cells) of 3%.
`O=C(O)c1cccc2[nH]c(-c3ccc(-c4ccc(OCc5ccccc5)cc4)cc3)nc12` [I190] showed an inhibition at 10 µM (DHODH [1]) of 47.5% and an inhibition at 1 µM (Jurkat cells) of 16.5%.
`Cc1cc(C(=O)O)c2nc(-c3ccc(-c4ccccc4)s3)[nH]c2c1` [I191] gave an inhibition at 10 µM (DHODH [1]) of 40.7% and an inhibition at 1 µM (Jurkat cells) of 17.6%.
With `O=C(O)c1cccc2[nH]c(-c3ccc(-c4cccs4)cc3)nc12` [I192] the inhibition at 10 µM (DHODH [1]) was 74.7% and the inhibition at 1 µM (Jurkat cells) was 26.1%.
In the case of `C/C(O)=C(\C#N)C(=O)Nc1ccc(C(F)(F)F)cc1` [Teriflunomide], the “fold greater inhibitor of DHODH than of protein tyrosine kinase” value (DHODH [2]) is given as 100-1,000 fold, the CFU cycling [3] is given as “inhibited CFU cycling” and the “number of unique active lesions compared to placebo” value [4] is given as “reduced number of unique active lesions”. The “onset of disease and symptom severity in EAE” value [5] was “significant delay in the onset of disease and in symptom severity”.
In the case of `C[C@@H]1C[C@H]2[C@@H]3CCC4=CC(=O)C=C[C@]4(C)[C@@]3(F)[C@@H](O)C[C@]2(C)[C@@]1(O)C(=O)CO` [dexamethasone], the “onset of disease and symptom severity in EAE” value [5] is listed as “significant delay in the onset of disease and in symptom severity”.
